This is an account of results in US20080039444A1, “COMPOUNDS” (GLAXO GROUP LIMITED, priority 2006, published 2008).

The test system of series [1] is histamine-induced nasal congestion. Briefly: Intranasal challenge method: whole body plethysmography, histamine-induced nasal congestion. The note with it: 24 hours after dosing, compared to azelastine; intranasal 1 mg/ml (FIG. 3, Example 24D). It counts as in vivo, guinea pig. On the procedure: FIG. 3: depicts the duration of 4-[(4-chlorophenyl)methyl]-2-({(2R)-1-[4-(4-{[3-(hexahydro-1H-azepin-1-yl)propyl]oxy}phenyl)butyl]-2-pyrrolidinyl}methyl)-1(2H)-phthalazinone, dihydrochloride salt (Example 24D) and azelastine in a conscious Guinea-Pig model of histamine-induced nasal congestion. Animals were exposed to histamine at the time indicated after an intranasal dose of 1 mg/ml of compound. Mean ±s.e. mean (n=6-10 per group).
Intranasal Challenge Method: Whole Body Plethysmography
Female Dunkin-Hartley guinea pigs 150-250 g are sensitised twice daily for 5 days (week 1) with ovalbumin (OVA) and aluminium hydroxide (AI(OH)3 or Alum) in physiological saline, 25 μl/nostril. Solution is made up at 20 μg/ml OVA, 180 mg/ml Alum. During weeks 2 and 3, animals receive 25 μl/nostril of OVA (5 mg/ml) once daily. […]
Pretreatment with test compound is performed at various times prior to histamine challenge. Efficacy dose-response curves are determined 1 h after dosing whereas duration of action is studied up to 7 days post dose. […]
After the stipulated pre-dose time has been reached, guinea pigs are re-anaesthetised with isoflurane and dosed with either 15 mM histamine or phosphate-buffered saline (PBS), (25 μl per nostril). […] Data are analysed using ANOVA with post-hoc Fishers LSD test (general linear models, Statistica®) and finally Hochberg adjustment. […]

The nature of series [2]: CNS penetration (intravenous bolus or infusion at steady state, blood and brain levels). It counts as in vivo, rat. The note with it: male CD Sprague Dawley rats. On the procedure:
(i) CNS penetration by bolus administration
Compounds are dosed intravenously at a nominal dose level of 1 mg/kg to male CD Sprague Dawley rats. Compounds are formulated in 5% DMSO/45% PEG200/50% water. Blood samples are taken under terminal anaesthesia with isoflurane at 5 min post-dose and the brains are also removed for assessment of brain penetration. Blood samples are taken directly into heparinised tubes. Blood samples are prepared for analysis using protein precipitation and brain samples are prepared using extraction of drug from brain by homogenisation and subsequent protein precipitation. The concentration of parent drug in blood and brain extracts is determined by quantitative LC-MS/MS analysis using compound-specific mass transitions.
(ii) CNS penetration following intravenous infusion at steady state
A loading dose of the compounds is given to male CD Sprague Dawley rats at a nominal dose level of 0.4 mg/kg. The compounds are then infused intravenously for 4 h at a nominal dose level of 0.1 mg/kg/h. Compounds are formulated in 2% DMSO/30% PEG200/68% water. Serial or terminal blood samples are taken at 0.5, 1.5, 2.5, 3, 3.5 and 4 h post dose. The final blood sample is collected under terminal anaesthesia with isoflurane and the brains are also removed for assessment of brain penetration. Blood samples are taken directly into heparinised tubes. Blood samples are prepared for analysis using protein precipitation and brain samples are prepared using extraction of drug from brain by homogenisation and subsequent protein precipitation. The concentration of parent drug in blood and brain extracts is determined by quantitative LC-MS/MS analysis using compound-specific mass transitions.

Series [3] deals with T1, human H1 receptor (Homo sapiens, UniProt P35367).
T1 construct: expressed in transfected cells
T1 sequence (P35367 whole entry): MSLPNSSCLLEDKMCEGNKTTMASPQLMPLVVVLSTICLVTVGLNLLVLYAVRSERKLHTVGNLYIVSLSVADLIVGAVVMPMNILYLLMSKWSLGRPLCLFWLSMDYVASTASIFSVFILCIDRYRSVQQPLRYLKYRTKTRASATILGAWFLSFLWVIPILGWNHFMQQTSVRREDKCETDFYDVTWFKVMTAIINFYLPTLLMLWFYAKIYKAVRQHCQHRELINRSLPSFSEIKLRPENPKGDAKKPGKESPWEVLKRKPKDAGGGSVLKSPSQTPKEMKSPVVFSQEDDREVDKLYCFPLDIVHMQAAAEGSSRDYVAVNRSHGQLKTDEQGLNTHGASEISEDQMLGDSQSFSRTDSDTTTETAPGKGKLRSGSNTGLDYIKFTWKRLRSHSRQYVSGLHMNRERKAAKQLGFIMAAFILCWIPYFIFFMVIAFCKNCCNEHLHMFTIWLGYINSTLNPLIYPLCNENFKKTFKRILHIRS
As to the kind of experiment: Histamine H1 functional antagonist assay: antagonist duration after washout. Type of series: cell-based. The note with it: at one or more time points. On the procedure:
The human H1 receptor is cloned using known procedures described in the literature [Biochem. Biophys. Res. Commun., 201(2):894 (1994)]. Chinese hamster ovary (CHO) cells stably expressing the human H1 receptor are generated according to known procedures described in the literature [Br. J. Pharmacol., 117(6):1071 (1996)].
Histamine H1 functional antagonist assay: Determination of antagonist pA2 and duration
To determine the antagonist duration, cells are cultured overnight in non-coated black-walled clear bottom 96-well tissue culture plates, are washed with PBS and are incubated with a concentration of antagonist chosen to give an approximate DR in the range 30-300. Following the 30 min antagonist incubation period, the cells are washed two or three times with 200 μl of PBS and then 100 μl Tyrodes buffer is added to each well to initiate antagonist dissociation. Following incubation for predetermined times, typically 30-270 min at 37° C., the cells are then washed again with 200 μl PBS and are incubated with 100 μl Tyrodes buffer containing Brilliant Black, probenecid and Fluo-4 for 45 min at 37° C., as described above. After this period, the cells are challenged with histamine in the FLIPR™ as described above. The dose ratio at each time point is used to determine the fractional H1 receptor occupancy by the following equation: fractional receptor occupancy=(DR-1)/DR. The decrease in receptor occupancy over time approximates to a straight line and is analysed by linear regression. The slope of this straight line fit is used as an index of the dissociation rate of the antagonist. The dose ratios for antagonist treated cells and for antagonist treated and washed cells at each time point are used to calculate a relative dose ratio (rel DR) which is also used as an index of antagonist duration. Antagonists with long duration of action produce rel DR values close to 1, and antagonists with short duration of action produce rel DR values that approaches the dose ratio value obtained for antagonist treatment alone.

In the case of `O=c1c2ccccc2c(Cc2ccc(Cl)cc2)nn1C[C@H]1CCCN1CCCCc1ccc(OCCCN2CCCCCC2)cc1` [Example 24, 4-[(4-Chlorophenyl)methyl]-2-({(2R)-1-[4-(4-{[3-(hexahydro-1H-azepin-1-yl)propyl]oxy}phenyl)butyl]-2-pyrrolidinyl}methyl)-1(2H)-phthalazinone free base], in series [1], the “inhibition of nasal congestion in the Guinea Pig whole body plethysmography model” value is recorded as “statistically significant inhibition of nasal congestion”. In addition, in series [2], the “CNS penetration compared with azelastine” value was “lower CNS penetration than azelastine”. Moreover, in series [3], the “duration of action compared with azelastine in the histamine H1 functional antagonist assay” value was “significantly longer duration of action than azelastine”.
